According to patent publication US20210322442A1, “LONG-TERM RE-ABSORBABLE SU[…] WITH CONTROLED PRE-CONCENTRATED PHARMACOLOGICALLY ACTIVE POLYMER SUBSTANCE RELEASE FOR TREATING ENDOMETRIOSIS” (priority 2020, published 2021):

Columns and labels:
[1] = test system: endometriosis; assay: clinical follow-up of about 1,000 patients treated with gestrinone implants; assay type: in vivo
Procedure: Research was conducted to assess the effectiveness of using the gestrinone implants described here for the treatment of endometriosis. About 1,000 patients with different degrees of the disease were followed up in clinical practice and the dose used was 1 to 3 implants. […] In these patients, treatment can be used only.

[2] = test system: endometriosis; settings: cited from earlier work

C#C[C@]1(O)CC[C@H]2[C@@H]3CCC4=CC(=O)CCC4=C3C=C[C@@]21CC [gestrinone]
carrier protein SHBG in the patient ([1]; mechanism of action, stated with an increase in free circulating testosterone): reduction in the carrier protein SHBG | quality of life of patients ([1]; observed in practice: mood, libido, reasoning and decision making capacity, lean mass): improves the quality of life of patients as a whole | free circulating testosterone ([1]; result of SHBG reduction): increase in free circulating testosterone | tolerability, oral dose [2]: up to 5 mg three times a week
